Test results as given in ChEMBL document CHEMBL3751839, “Novel phenylalanine derived diamides as Factor XIa inhibitors” (Bioorg Med Chem Lett, 2016).

Columns and labels:
in vitro = details: human, liver microsomes
Description: Stability in human liver microsomes assessed as half life

in vivo [1] = details: beagle, dog, iv, 0.4 mg/kg
Description: Volume of distribution at steady state in beagle dog at 0.4 mg/kg, iv cassette dosing by LC-MS/MS method

in vivo [2] = details: beagle, dog, iv, 0.4 mg/kg; remark: listed apart in the source
Description: Total AUC in beagle dog at 0.4 mg/kg, iv administered as cassette dosing by LC-MS/MS method

in vivo [3] = details: beagle, dog, iv, 0.4 mg/kg; remark: listed apart in the source
Description: Clearance in beagle dog at 0.4 mg/kg, iv administered as cassette dosing by LC-MS/MS method

in vivo [4] = details: beagle, dog, iv, 0.4 mg/kg; remark: listed apart in the source
Description: Half life in beagle dog at 0.4 mg/kg, iv cassette dosing by LC-MS/MS method

Vd (in vivo [1])	AUC (in vivo [2])	clearance (in vivo [3])	half-life (in vivo [4])	Compound	half-life (in vitro)
				O=C(/C=C/c1cc(Cl)ccc1-n1cnnn1)N[C@@H](Cc1ccccc1)C(=O)Nc1ccc(-n2cnnn2)cc1	> 1.67 h
				COC(=O)Nc1cccc(NC(=O)[C@H](Cc2ccccc2)NC(=O)/C=C/c2cc(Cl)ccc2-n2cnnn2)c1	> 1.67 h
				O=C(/C=C/c1cc(Cl)ccc1-n1cnnn1)N[C@@H](Cc1ccccc1)C(=O)Nc1ccc(-c2nc[nH]n2)cc1	> 1.67 h
0.5 L/kg	0.396 µM·h	16 mL/min/kg	0.6 h	O=C(/C=C/c1cc(Cl)ccc1-n1cnnn1)N[C@@H](Cc1ccccc1)C(=O)Nc1ccc(C(=O)O)cc1	> 2 h
